Reference: patent publication US10322118B2, “Compounds and methods for inhibiting Cif virulence factor” (priority 2012, dated 2019)
Counter-ions that a name gives are not always drawn.

How the values were obtained:
Cif [1] = molecular target: T1, Cif (Pseudomonas aeruginosa (strain UCBPP-PA14), UniProt A0A0H2ZD27); assay: Primary high throughput screen with fluorogenic substrate CMNGC; assay type: biochemical; conditions: primary screen; test compounds at 10 μM, 1 μM Cif, 25 μM CMNGC, 60 minutes;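 note: fluorescence of 200 µL reactions in 96-well plates read on a plate reader, inhibitor at tenfold molar excess over Cif enzyme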
Protocol: All high throughput screening assays were performed using 96-well plates, a 200 μL reaction volume, and a fluorescent plate reader. […] The fluorescent signal was measured after allowing the enzyme reaction to proceed for 60 minutes.
A library of 1600 FDA-approved compounds was screened for Cif inhibitory activity.
The screen was performed with only a 10-fold stoichiometric excess of inhibitor over Cif enzyme.

Cif [2] = molecular target: T1, Cif; assay: Secondary screen (sextuplicate) with fluorogenic substrate CMNGC; assay type: biochemical;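 note: purified enzyme assay in 96-well plates, 200 µL volume, fluorescence recorded each minute across a 60 min reaction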
Protocol: All high throughput screening assays were performed using 96-well plates, a 200 μL reaction volume, and a fluorescent plate reader. […] The fluorescent signal was measured after allowing the enzyme reaction to proceed for 60 minutes. The secondary screen was performed using the same conditions as the primary screen, except that fluorescent readings were taken every minute for the 60-minute reaction.
Subsequently, the filtered primary hits were retested to validate the observed inhibitory effect.

[3] = read-out: % Inhibition, Mean ± SD
[4] = read-out: % Inhibition, plate 1
[5] = read-out: % Inhibition, plate 2
[6] = read-out: % Inhibition, plate 3
[7] = read-out: % Inhibition, plate 4
[8] = read-out: % Inhibition, plate 5
[9] = read-out: % Inhibition, plate 6

T1 sequence (A0A0H2ZD27 25-319 limits assumed): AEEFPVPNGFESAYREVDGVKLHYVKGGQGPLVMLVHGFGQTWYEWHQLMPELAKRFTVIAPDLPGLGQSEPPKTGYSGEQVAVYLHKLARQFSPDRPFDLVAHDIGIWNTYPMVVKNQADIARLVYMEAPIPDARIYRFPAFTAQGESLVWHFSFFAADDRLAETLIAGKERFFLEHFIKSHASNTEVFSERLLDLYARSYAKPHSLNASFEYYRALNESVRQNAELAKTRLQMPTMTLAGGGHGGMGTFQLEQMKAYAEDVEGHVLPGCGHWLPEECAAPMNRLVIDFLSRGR

Question: For `CCCCCCCCCCCCCCOS(=O)(=O)O` [Sodium tetradecyl sulfate], which inhibition at 10 µM (Cif [1]) is on record?
Answer: 78%

Question: What about the inhibition at 10 µM (Cif [2]; [3]) of the same compound?
Answer: 9 ± 4%

Question: What about the inhibition at 10 µM (Cif [2]; [4]) of the same compound?
Answer: 9%

Question: What about the inhibition at 10 µM (Cif [2]; [5]) of the same compound?
Answer: 4%

Question: What about the inhibition at 10 µM (Cif [2]; [6]) of the same compound?
Answer: 12%

Question: What about the inhibition at 10 µM (Cif [2]; [7]) of the same compound?
Answer: 12%

Question: And the inhibition at 10 µM (Cif [2]; [8])?
Answer: 13%

Question: And the inhibition at 10 µM (Cif [2]; [9])?
Answer: 5%

Question: `Nc1ccc(S(=O)(=O)Nc2ncccn2)cc1` [Sulfadiazine] was tested. Which inhibition at 10 µM (Cif [1]) did it give?
Answer: 42%

Question: And the inhibition at 10 µM (Cif [2]; [3])?
Answer: 23 ± 4%

Question: And the inhibition at 10 µM (Cif [2]; [4])?
Answer: 23%

Question: What about the inhibition at 10 µM (Cif [2]; [5]) of the same compound?
Answer: 24%

Question: What about the inhibition at 10 µM (Cif [2]; [6]) of the same compound?
Answer: 24%

Question: What about the inhibition at 10 µM (Cif [2]; [7]) of the same compound?
Answer: 26%

Question: What about the inhibition at 10 µM (Cif [2]; [8]) of the same compound?
Answer: 28%

Question: And the inhibition at 10 µM (Cif [2]; [9])?
Answer: 15%

Question: Which results are given for `C=C(NC(=O)C(=C)NC(=O)c1csc(C2=N[C@@H]3c4csc(n4)[C@H]4NC(=O)c5csc(n5)[C@H]([C@](C)(O)[C@@H](C)O)NC(=O)[C@H]5CSC(=N5)/C(=C/C)NC(=O)[C@H]([C@@H](C)O)NC(=O)c5csc(n5)[C@]3(CC2)NC(=O)[C@H](C)NC(=O)C(=C)NC(=O)[C@H](C)NC(=O)[C@H]([C@@H](C)CC)N[C@@H]2C=Cc3c([C@H](C)O)cc(nc3[C@H]2O)C(=O)O[C@@H]4C)n1)C(N)=O` [Thiostrepton]?
Answer: inhibition at 10 µM (Cif [1]): 46%; inhibition at 10 µM (Cif [2]; [3]): 28 ± 12%; inhibition at 10 µM (Cif [2]; [4]): 14%; inhibition at 10 µM (Cif [2]; [5]): 15%; inhibition at 10 µM (Cif [2]; [6]): 25%; inhibition at 10 µM (Cif [2]; [7]): 27%; inhibition at 10 µM (Cif [2]; [8]): 43%; inhibition at 10 µM (Cif [2]; [9]): 42%

Question: What does the source list for `CCN(CC)CCOc1ccc2c(c1)C(=O)c1cc(OCCN(CC)CC)ccc1-2` [Tilorone]?
Answer: inhibition at 10 µM (Cif [1]): 36%; inhibition at 10 µM (Cif [2]; [3]): 6 ± 4%; inhibition at 10 µM (Cif [2]; [4]): 4%; inhibition at 10 µM (Cif [2]; [5]): 5%; inhibition at 10 µM (Cif [2]; [6]): 5%; inhibition at 10 µM (Cif [2]; [7]): 11%; inhibition at 10 µM (Cif [2]; [8]): 10%; inhibition at 10 µM (Cif [2]; [9]): 0%

Question: For `NC[C@H]1O[C@H](O[C@H]2[C@H](O)[C@@H](O[C@H]3O[C@H](CO)[C@@H](O)[C@H](N)[C@H]3O)[C@H](N)C[C@@H]2N)[C@H](N)C[C@@H]1O` [Tobramycin], which inhibition at 10 µM (Cif [1]) is on record?
Answer: 40%

Question: What about the inhibition at 10 µM (Cif [2]; [3]) of the same compound?
Answer: -8 ± 7%

Question: And the inhibition at 10 µM (Cif [2]; [4])?
Answer: -5%

Question: And the inhibition at 10 µM (Cif [2]; [5])?
Answer: -7%

Question: And the inhibition at 10 µM (Cif [2]; [6])?
Answer: -5%

Question: What about the inhibition at 10 µM (Cif [2]; [7]) of the same compound?
Answer: -12%

Question: And the inhibition at 10 µM (Cif [2]; [8])?
Answer: 0%

Question: And the inhibition at 10 µM (Cif [2]; [9])?
Answer: -21%

Question: Which inhibition at 10 µM (Cif [1]) does the source give for `CN(C)CCOc1ccc(/C(=C(/CCCl)c2ccccc2)c2ccccc2)cc1` [Toremiphene citrate] here?
Answer: 31%

Question: What about the inhibition at 10 µM (Cif [2]; [3]) of the same compound?
Answer: 10 ± 4%

Question: And the inhibition at 10 µM (Cif [2]; [4])?
Answer: 3%

Question: And the inhibition at 10 µM (Cif [2]; [5])?
Answer: 7%

Question: What about the inhibition at 10 µM (Cif [2]; [6]) of the same compound?
Answer: 13%

Question: And the inhibition at 10 µM (Cif [2]; [7])?
Answer: 12%

Question: What about the inhibition at 10 µM (Cif [2]; [8]) of the same compound?
Answer: 15%

Question: What about the inhibition at 10 µM (Cif [2]; [9]) of the same compound?
Answer: 11%

Question: For `Nc1nc(N)c2nc(-c3ccccc3)c(N)nc2n1` [Triamterene], which inhibition at 10 µM (Cif [1]) is on record?
Answer: 35%

Question: And the inhibition at 10 µM (Cif [2]; [3])?
Answer: 19 ± 5%

Question: And the inhibition at 10 µM (Cif [2]; [4])?
Answer: 15%

Question: And the inhibition at 10 µM (Cif [2]; [5])?
Answer: 17%

Question: And the inhibition at 10 µM (Cif [2]; [6])?
Answer: 18%

Question: And the inhibition at 10 µM (Cif [2]; [7])?
Answer: 21%

Question: And the inhibition at 10 µM (Cif [2]; [8])?
Answer: 28%

Question: And the inhibition at 10 µM (Cif [2]; [9])?
Answer: 16%

Question: What does the source list for `CN(C)CCCN1c2ccccc2Sc2ccc(C(F)(F)F)cc21` [Triflupromazine hydrochloride]?
Answer: inhibition at 10 µM (Cif [1]): 33%; inhibition at 10 µM (Cif [2]; [3]): 2 ± 6%; inhibition at 10 µM (Cif [2]; [4]): 4%; inhibition at 10 µM (Cif [2]; [5]): 10%; inhibition at 10 µM (Cif [2]; [6]): -2%; inhibition at 10 µM (Cif [2]; [7]): 1%; inhibition at 10 µM (Cif [2]; [8]): 8%; inhibition at 10 µM (Cif [2]; [9]): -6%

Question: Which inhibition at 10 µM (Cif [1]) does the source give for `O=C(CCCCCCC(=O)Nc1ccccc1)NO` [Vorinostat] here?
Answer: 35%

Question: What about the inhibition at 10 µM (Cif [2]; [3]) of the same compound?
Answer: 13 ± 6%

Question: What about the inhibition at 10 µM (Cif [2]; [4]) of the same compound?
Answer: 5%

Question: And the inhibition at 10 µM (Cif [2]; [5])?
Answer: 13%

Question: What about the inhibition at 10 µM (Cif [2]; [6]) of the same compound?
Answer: 8%

Question: And the inhibition at 10 µM (Cif [2]; [7])?
Answer: 14%

Question: And the inhibition at 10 µM (Cif [2]; [8])?
Answer: 18%

Question: What about the inhibition at 10 µM (Cif [2]; [9]) of the same compound?
Answer: 22%

Question: Which results are given for `CC(=O)CC(c1ccccc1)c1c(O)c2ccccc2oc1=O` (stereo not shown) [Warfarin]?
Answer: inhibition at 10 µM (Cif [1]): 32%; inhibition at 10 µM (Cif [2]; [3]): 15 ± 3%; inhibition at 10 µM (Cif [2]; [4]): 12%; inhibition at 10 µM (Cif [2]; [5]): 12%; inhibition at 10 µM (Cif [2]; [6]): 17%; inhibition at 10 µM (Cif [2]; [7]): 15%; inhibition at 10 µM (Cif [2]; [8]): 20%; inhibition at 10 µM (Cif [2]; [9]): 17%

Question: How did the “% Inhibition” value (Cif [1]) turn out when Candicidin was run?
Answer: 41%

Question: And the “% Inhibition, Mean ± SD” value (Cif [2]; secondary screen, 10 μM, mean of six plates)?
Answer: 15 ± 7%

Question: What about the “% Inhibition, plate 1” value (Cif [2]; secondary screen, 10 μM, plate number 1) of the same compound?
Answer: 3%

Question: What about the “% Inhibition, plate 2” value (Cif [2]; secondary screen, 10 μM, plate number 2) of the same compound?
Answer: 13%

Question: And the “% Inhibition, plate 3” value (Cif [2]; secondary screen, 10 μM, plate number 3)?
Answer: 17%

Question: And the “% Inhibition, plate 4” value (Cif [2]; secondary screen, 10 μM, plate number 4)?
Answer: 19%

Question: What about the “% Inhibition, plate 5” value (Cif [2]; secondary screen, 10 μM, plate number 5) of the same compound?
Answer: 23%

Question: What about the “% Inhibition, plate 6” value (Cif [2]; secondary screen, 10 μM, plate number 6) of the same compound?
Answer: 18%
